Laboratory results from patent publication US20090233960A1, “Kinase Inhibitors” (Devgen NV, priority 2005, published 2009).
pIC50: −log10 of the molar value. “Also recorded” adds a separate entry of the source.

What was measured:
[1] = molecular target: T1, human ROCKI/ROCKII mix (Homo sapiens, UniProt O75116); assay: ROCK inhibition, fluorescence polarization (FP) IMAP assay; type: biochemical; conditions: 10 μM ATP
T1 construct: purchased Upstate Biotechnology 14451
Method: The compounds of the invention were tested for inhibition of human ROCKI/ROCKII mix.
The inhibition assays were performed with a fluorescence polarization (FP) assay using the commercially available ROCK IMAP Kit from Molecular Devices (Product ID. No. R8093) essentially in accordance with the protocol supplied by the manufacturer. The S6 ribosomal protein-derived substrate used was (Fl)-[…], also obtained from Molecular Devices (Product ID No. R7184). The enzyme mix ROCKI/ROCKII was obtained from Upstate Biotechnology (Product ID No 14451).
In summary, all compounds were screened in the wells of a 384 well plate for enzymatic inhibition with concentrations varying from 100 μM to 0.3 nM using a stepwise three (or two)-fold dilution.
To perform the assay, 1 μl of a solution of the compound to be tested in DMSO (at each concentration) was added to 2 μl of a solution of the enzyme in 10 mM Tris-HCl, 10 mM MgCl2, 0.1% BSA, 0.05% NaN3, pH 7,2. The final concentration of the enzyme was 2.6 nM.
After incubating for 30 minutes at room temperature, 2 μl of a mixture of ATP and the protein substrate in 10 mM Tris-HCl, 10 mM MgCl2, 0.1% BSA, 0.05% NaN3, pH 7.2 was added. The final concentration of the ATP was 10 μM and final concentration of protein substrate was 0.2 μM.
After incubating for 60 minutes at room temperature, 12 μl of the IMAP Binding Solution (mix of the IMAP Binding Buffer A (1×) and the IMAP Binding Reagent (from the ROCK IMAP kit)) was added.
The mixture thus obtained (total volume: 17 μl) was incubated for 60 minutes at room temperature, upon which the fluorescence polarization was measured using an automated plate reader (Perkin Elmer, Model Envision 2100-0010 HTS) with FP filters: excitation filter FITC FP 480 and emission filters FITC FP P-pol 535 and FITC FP S-pol 535 (Perkin-Elmer). The results were fitted to a curve using the XL-Fit algorithm and IC50 values were calculated for each fitted curve, again using the XL-Fit algorithm.

[2] = system: spontaneous hypertensive rats (SHRs); assay: Activity on hypertension in spontaneous hypertensive rats (SAP and heart rate); type: in vivo, rat; conditions: SHR, 10 mg/kg, single oral dose
Method: The efficiency of compounds of the invention to reduce and/or treat hypertension in an acute model was evaluated using spontaneous hypertensive rats (SHRs).
Compounds were administered as one single dose to SHR. Systolic arterial pressure (SAP) and heart rate were recorded before (−1 hr) and 1, 3, 5, 7, and 24 hours after oral administration of vehicle or test compound.
A reduction in SAP by 10 percent or more (>10%), or a decrease in heart rate by 20 percent or more (>20%), relative to baseline was considered significant.

T1 sequence (O75116 11-552 limits assumed): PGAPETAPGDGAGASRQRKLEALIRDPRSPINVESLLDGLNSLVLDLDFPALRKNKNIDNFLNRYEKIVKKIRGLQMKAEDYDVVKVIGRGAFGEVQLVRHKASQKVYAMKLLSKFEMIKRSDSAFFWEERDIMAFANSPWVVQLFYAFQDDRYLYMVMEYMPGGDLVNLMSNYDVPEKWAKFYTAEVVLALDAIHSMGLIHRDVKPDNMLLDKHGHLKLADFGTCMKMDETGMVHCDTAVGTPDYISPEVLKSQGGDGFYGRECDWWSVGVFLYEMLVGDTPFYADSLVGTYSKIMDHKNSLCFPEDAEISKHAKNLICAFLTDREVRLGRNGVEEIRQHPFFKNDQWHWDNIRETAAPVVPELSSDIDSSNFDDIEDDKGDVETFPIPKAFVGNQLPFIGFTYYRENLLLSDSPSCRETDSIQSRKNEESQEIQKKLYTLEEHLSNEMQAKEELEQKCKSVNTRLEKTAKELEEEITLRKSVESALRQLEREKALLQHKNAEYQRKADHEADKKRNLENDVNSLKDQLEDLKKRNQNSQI

Structure (SMILES)	pIC50 [1]	hypotensive response (systolic arterial pressure) [2]
CC(N)c1ccc(C(=O)Nc2ccncc2)cc1N (stereo not drawn) [Compound 3, 3-amino-4-(1-amino-ethyl)-N-pyridin-4-yl-benzamide]	5.30 to 6.30	–
CC(N)c1ccc(C(=O)Nc2ccncc2)cc1-c1cccs1 (stereo not drawn) [Compound 5, 4-(1-amino-ethyl)-N-pyridin-4-yl-3-thiophen-2-yl-benzamide]	> 7.30	–
COc1ccc(-c2cc(C(=O)Nc3ccncc3)ccc2C(C)N)cc1 (stereo not drawn) [Compound 6, 6-(1-amino-ethyl)-4′-methoxy-biphenyl-3-carboxylic acid pyridin-4-ylamide]	6.30 to 7.30	–
CC(N)c1ccc(C(=O)Nc2ccncc2)cc1-c1ccoc1 (stereo not drawn) [Compound 7, 4-(1-amino-ethyl)-3-furan-3-yl-N-pyridin-4-yl-benzamide]	6.30 to 7.30	–
CC(N)c1ccc(C(=O)Nc2ccncc2)cc1OCc1ccccc1 (stereo not drawn) [Compound 12, 4-(1-amino-ethyl)-3-benzyloxy-N-pyridin-4-yl-benzamide]	6.30 to 7.30	–
CC(N)c1ccc(C(=O)Nc2ccncc2)cc1NC(=O)Nc1ccccc1 (stereo not drawn) [Compound 14, 4-(1-amino-ethyl)-3-(3-phenyl-ureido)-N-pyridin-4-yl-benzamide]	6.30 to 7.30	–
COc1cccc(C(=O)Nc2cc(C(=O)Nc3ccncc3)ccc2C(C)N)c1 (stereo not drawn) [Compound 19, 4-(1-amino-ethyl)-3-(3-methoxy-benzoylamino)-N-pyridin-4-yl-benzamide]	> 7.30	–
CC(N)c1ccc(C(=O)Nc2ccncc2)cc1NC(=O)c1cccc(Cl)c1 (stereo not drawn) [Compound 20]	6.30 to 7.30	–
CC(N)c1ccc(C(=O)Nc2ccncc2)cc1NC(=O)c1ccc(Cl)cc1 (stereo not drawn) [Compound 22, 4-(1-Amino-ethyl)-3-(4-chloro-benzoylamino)-N-pyridin-4-yl-benzamide]	6.30 to 7.30	–
CC(N)c1ccc(C(=O)Nc2ccncc2)cc1-c1cccc(Cl)c1 (stereo not drawn) [Compound 24, 6-(1-aminoethyl)-3′-chloro-N-pyridin-4-ylbiphenyl-3-carboxamide]	> 7.30	–
CC(N)c1ccc(C(=O)Nc2ccncc2)cc1-c1ccc(F)cc1 (stereo not drawn) [Compound 26, 6-(1-aminoethyl)-4′-fluoro-N-pyridin-4-ylbiphenyl-3-carboxamide]	> 7.30	–
CC(N)c1ccc(C(=O)Nc2ccncc2)cc1-c1ccc2ccccc2c1 (stereo not drawn) [Compound 32, 4-(1-aminoethyl)-3-(2-naphthyl)-N-pyridin-4-ylbenzamide]	> 7.30	–
C[C@H](N)c1ccc(C(=O)Nc2ccncc2)cc1-c1cccs1 [Compound 104, 4-((S)-1-Amino-ethyl)-N-pyridin-4-yl-3-thiophen-2-yl-benzamide]	6.30 to 7.30	–
C[C@@H](N)[C@H]1CC[C@H](C(=O)Nc2ccncc2)CC1 [Compound Y-27632]	–	not significant; also recorded: completely inactive

Further lines, with some results ahead:

pIC50 [1]	Structure (SMILES)	hypotensive response (systolic arterial pressure) [2]
5.30 to 6.30	CC(N)c1ccc(C(=O)Nc2ccncc2)cc1O (stereo not drawn) [Compound 1, 4-(1-amino-ethyl)-3-hydroxy-N-pyridin-4-yl-benzamide]	–
6.30 to 7.30	CC(N)c1ccc(C(=O)Nc2ccncc2)cc1[N+](=O)[O-] (stereo not drawn) [Compound 2, 4-(1-amino-ethyl)-3-nitro-N-pyridin-4-yl-benzamide]	–
> 7.30	CC(N)c1ccc(C(=O)Nc2ccncc2)cc1-c1ccc(Cl)cc1 (stereo not drawn) [Compound 4, 6-(1-amino-ethyl)-4′-chloro-biphenyl-3-carboxylic acid pyridin-4-ylamide]	–
5.30 to 6.30	CC(N)c1ccc(C(=O)Nc2ccncc2)cc1OCCO (stereo not drawn) [Compound 8, 4-(1-amino-ethyl)-3-(2-hydroxy-ethoxy)-N-pyridin-4-yl-benzamide]	–
5.30 to 6.30	CC(N)c1ccc(C(=O)Nc2ccncc2)cc1OCCCO (stereo not drawn) [Compound 9, 4-(1-amino-ethyl)-3-(3-hydroxy-propoxy)-N-pyridin-4-yl-benzamide]	–
5.30 to 6.30	CC(N)c1ccc(C(=O)Nc2ccncc2)cc1OCCN (stereo not drawn) [Compound 10, 3-(2-amino-ethoxy)-4-(1-amino-ethyl)-N-pyridin-4-yl-benzamide]	–
5.30 to 6.30	CC(N)c1ccc(C(=O)Nc2ccncc2)cc1OCCCN (stereo not drawn) [Compound 11, 4-(1-amino-ethyl)-3-(3-amino-propoxy)-N-pyridin-4-yl-benzamide]	–
6.30 to 7.30	CC(N)c1ccc(C(=O)Nc2ccncc2)cc1NC(=S)Nc1ccccc1 (stereo not drawn) [Compound 13, 4-(1-amino-ethyl)-3-(3-phenyl-thioureido)-N-pyridin-4-yl-benzamide]	–
6.30 to 7.30	CC(N)c1ccc(C(=O)Nc2ccncc2)cc1NCc1ccco1 (stereo not drawn) [Compound 16, 4-(1-amino-ethyl)-3-[(furan-2-ylmethyl)-amino]-N-pyridin-4-yl-benzamide]	–
6.30 to 7.30	CC(N)c1ccc(C(=O)Nc2ccncc2)cc1NC(=O)c1ccccc1 (stereo not drawn) [Compound 17, 4-(1-amino-ethyl)-3-benzoylamino-N-pyridin-4-yl-benzamide]	–
6.30 to 7.30	CC(N)c1ccc(C(=O)Nc2ccncc2)cc1NC(=O)c1ccco1 (stereo not drawn) [Compound 18, furan-2-carboxylic acid [2-(1-amino-ethyl)-5-(pyridin-4-ylcarbamoyl)-phenyl]-amide]	–
> 7.30	COc1ccc(C(=O)Nc2cc(C(=O)Nc3ccncc3)ccc2C(C)N)cc1 (stereo not drawn) [Compound 21, 4-(1-Amino-ethyl)-3-(4-methoxy-benzoylamino)-N-pyridin-4-yl-benzamide]	–
> 7.30	C[C@@H](N)c1ccc(C(=O)Nc2ccncc2)cc1-c1cccs1 [Compound 103, 4-((R)-1-Amino-ethyl)-N-pyridin-4-yl-3-thiophen-2-yl-benzamide]	–
